Data from ChEMBL document CHEMBL3132849, “Bioactive prenylated phenyl derivatives derived from marine natural products: novel scaffolds for the design of BACE inhibitors” (Medchemcomm, 2014).
“And” between values parts separate entries of the source, which are not always exact repeats. Equal values may be shown once. Starred links: 1 amine or outer side, 2 acyl side, 3 side chain; linkers in the order of their positions; H or OH if unused. Non-standard residues stand in square brackets, D forms with d. Residues, ends and D or L forms follow the SMILES beside them. LeuΨ(S-CHOHCH2)Ala = CC(C)C[C@H](N[*:1])[C@@H](O)C[C@@H](C)C(=O)[*:2]

How the values were obtained:
[1] = biological target: Beta-secretase 1 (Homo sapiens) (UniProt P56817); conditions: CHO-7W, 3 uM
Description: Inhibition of BACE1 in human APP751 transfected CHO-7W cells assessed as inhibition of amyloid-beta (1 to 40) peptide production at 3 uM after 24 hrs by Abeta40 human ELISA Kit

[2] = biological target: Beta-secretase 1 (Homo sapiens) (UniProt P56817); assay: Inhibition of recombinant human BACE1 using fluorogenic peptide 4 as substrate at 10 uM by FRET assay
[3] = biological target: Beta-secretase 1 (Homo sapiens) (UniProt P56817); assay: Inhibition of BACE1 (unknown origin) expressed in human APP751 transfected CHO-7W cells assessed as inhibition of amyloid-beta (1 to 40) peptide production at 10 uM after 24 hrs by Abeta40 human ELISA Kit; assay type: cell-based
[4] = biological target: Beta-secretase 1 (Homo sapiens) (UniProt P56817); assay: Inhibition of BACE1 (unknown origin) expressed in human APP751 transfected CHO-7W cells assessed as inhibition of amyloid-beta (1 to 40) peptide production at 1 uM after 24 hrs by Abeta40 human ELISA Kit; assay type: cell-based
[5] = biological target: Beta-secretase 1 (Homo sapiens) (UniProt P56817); assay: Inhibition of recombinant human BACE1 using fluorogenic peptide 4 as substrate at 1 uM by FRET assay
CHO = assay: Cytotoxicity in Cricetulus griseus CHO cells expressing human APP751 at 10 uM; assay type: cell-based; conditions: chinese hamster
[6] = biological target: Beta-secretase 1 (Homo sapiens) (UniProt P56817); assay: Inhibition of recombinant human BACE1 assessed as fluorescence at 1 uM using FRET ASSAY KIT
[7] = biological target: Beta-secretase 1 (Homo sapiens) (UniProt P56817); assay: Inhibition of recombinant human BACE1 assessed as fluorescence at 10 uM using FRET ASSAY KIT
[8] = Cytotoxicity in human SH-SY5Y cells at 1 to 10 uM; assay type: cell-based

Chain of Beta-secretase 1 (Homo sapiens) (P56817 whole entry): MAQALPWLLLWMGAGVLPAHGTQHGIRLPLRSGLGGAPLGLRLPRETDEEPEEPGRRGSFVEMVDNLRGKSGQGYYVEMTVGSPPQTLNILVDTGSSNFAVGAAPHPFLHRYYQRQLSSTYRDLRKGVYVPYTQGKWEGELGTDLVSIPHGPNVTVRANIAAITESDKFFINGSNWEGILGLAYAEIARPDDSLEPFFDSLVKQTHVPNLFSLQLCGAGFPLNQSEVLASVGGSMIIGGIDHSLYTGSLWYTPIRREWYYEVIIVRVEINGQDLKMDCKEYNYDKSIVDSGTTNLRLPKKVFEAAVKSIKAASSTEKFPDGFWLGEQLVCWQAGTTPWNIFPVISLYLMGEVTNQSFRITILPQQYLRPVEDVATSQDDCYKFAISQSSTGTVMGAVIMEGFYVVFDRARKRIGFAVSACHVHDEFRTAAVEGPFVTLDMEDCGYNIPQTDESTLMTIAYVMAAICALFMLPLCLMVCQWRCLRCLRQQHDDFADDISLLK

| SMILES | inhibition [1] [%] | inhibition [2] [%] | inhibition [3] | inhibition [4] | inhibition [5] | Activity (CHO) | inhibition [6] [%] | inhibition [7] [%] | Activity [8] |
| --- | --- | --- | --- | --- | --- | --- | --- | --- | --- |
| CC(C)C[C@H](NC(=O)[C@H](CC(N)=O)NC(=O)[C@@H](NC(=O)[C@@H](N)CCC(=O)O)C(C)C)[C@@H](O)C[C@@H](C)C(=O)N[C@@H](C)C(=O)N[C@@H](CCC(=O)O)C(=O)N[C@@H](Cc1ccccc1)C(=O)O (H-EVN[LeuΨ(S-CHOHCH2)Ala]AEF-OH) | 80 | – | – | – | – | – | – | – | – |
| COC(=O)c1ccc2c(c1)N(C/C=C(\C)CC/C=C(\C)CCC=C(C)C)C(=O)CO2 | – | 22 | 29% | 0% | 59% | – | – | – | – |
| CCCOc1ccc(C(=O)OC)cc1NC/C=C(\C)CC/C=C(\C)CCC=C(C)C | – | 27 | 0% | 0% | 88% | – | – | – | – |
| COc1ccc(C(=O)O)cc1NC/C=C(\C)CC/C=C(\C)CCC=C(C)C | – | 0 | – | 31% | 50% | Toxic | – | – | – |
| CC(C)=CCC/C(C)=C/CC/C(C)=C/CNc1cc(C(=O)O)ccc1O | – | 36 | 0% | – | 100% | – | – | – | – |
| COC(=O)c1ccc(OC)c(NC[C@H](O)[C@@H](Cc2ccccc2)NC/C=C(\C)CCC=C(C)C)c1 | – | – | – | 3% | – | Toxic | 100 | 56 | – |
| CC(C)=CCC/C(C)=C/CC/C(C)=C/Cc1cc(C(=O)O)ccc1O | – | 5 | – | – | 100% | – | – | – | – |
| COc1ccccc1NC/C=C(\C)CC/C=C(\C)CCC=C(C)C | – | 64 | 0% | – | 94% | – | – | – | – |
| CCCS(=O)(=O)Oc1ccc(C(=O)O)cc1NC/C=C(\C)CC/C=C(\C)CCC=C(C)C | – | 3 | 36% | 14% | 93% | – | – | – | – |
| CCOC(=O)COc1ccc(C(=O)OC)cc1N(C/C=C(\C)CC/C=C(\C)CCC=C(C)C)CC(=O)OCC | – | 0 | 36% | 14% | 100% | – | – | – | – |
| CC(C)=CCC/C(C)=C/CC/C(C)=C/CN1C(=O)COc2ccc(C(=O)O)cc21 | – | 17 | 0% | 0% | 100% | – | – | – | – |
| CC(=O)Oc1ccc(C(=O)O)cc1C/C=C(\C)CC/C=C(\C)CC/C=C(\C)CCC=C(C)C | – | 17 | – | 24% | 87% | Toxic | – | – | – |
| CC(C)=CCC/C(C)=C/CC/C(C)=C/CC/C(C)=C/Cc1cc(C(=O)O)ccc1O | – | 0 | 30% and 47% | 8% and 10% | 42% and 45% | – | – | – | – |
| COC(=O)c1ccc(OC)c(NC/C=C(\C)CC/C=C(\C)CCC=C(C)C)c1 | – | 68 | 29% | 0% | 100% | – | – | – | – |
| COc1ccc(C(=O)N[C@@H](Cc2ccccc2)[C@H](O)CNC2CC2)cc1NC/C=C(\C)CC/C=C(\C)CCC=C(C)C | – | – | 28% | 10% | – | – | 63 | 34 | – |
| COC(=O)c1ccnc(NC/C=C(\C)CC/C=C(\C)CCC=C(C)C)c1 | – | 70 | 0% | – | 100% | – | – | – | – |
| CC(C)=CCC/C(C)=C/CC/C(C)=C/CNc1cccc(C(=O)O)c1 | – | 25 | – | – | 89% | – | – | – | Toxic |
